Consider 15 molecules from patent US8518957B2, “Methanocarba adenosine derivatives, pharmaceutical compositions, and method of reducing intraocular pressure” (The United States of America, as represented by the …, priority 2009, dated 2013).

For assay [1], the target named is T1, human A1 AR (Homo sapiens, UniProt P30542).
T1 construct: expressed in transfected cells
T1 sequence (P30542 1-326): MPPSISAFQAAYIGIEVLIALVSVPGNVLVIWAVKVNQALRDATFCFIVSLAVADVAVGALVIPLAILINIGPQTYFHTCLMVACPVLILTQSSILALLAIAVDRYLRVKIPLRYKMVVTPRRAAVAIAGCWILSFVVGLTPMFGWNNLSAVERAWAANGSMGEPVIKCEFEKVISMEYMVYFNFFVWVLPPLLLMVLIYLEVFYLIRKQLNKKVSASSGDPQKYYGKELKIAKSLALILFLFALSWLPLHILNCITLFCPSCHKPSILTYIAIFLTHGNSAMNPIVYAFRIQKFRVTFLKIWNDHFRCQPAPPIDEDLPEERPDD
Kind of assay: Radioligand binding at human A1 AR ([3H]NECA, membranes of CHO cells). Conditions: for % inhibition, A1: inhibition of radioligand binding at 10 μM, [3H]36, CHO cells. In a few lines: (§1)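 Membranes from CHO (hA1, hA3) or HEK-293 (hA2A) cells were pretreated with adenosine deaminase and incubated 60 min at 25° C in pH 7.5 Tris/10 mM MgCl2. Radioligands were A1 [3H]NECA 3.5 nM, A2A [3H]CGS21680 10 nM and A3 [125I]I-AB-MECA 0.34 nM. Bound ligand was filtered and Ki derived.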

The next assay has as its target T2, hA2AAR (Homo sapiens, UniProt P29274).
T2 construct: expressed in transfected cells
The experiment in a line: Radioligand binding at human A2A AR ([3H]CGS21680, membranes of HEK-293 cells). Conditions: for Ki / % inhibition, A2A: [3H]37, HEK293 cells; for Ki: read-out: Affinity (Ki, nM), A2A; for % inhibition, A2A: inhibition of radioligand binding at 10 μM. In short, it runs like this: as §1

The next assay addresses T3, human A3AR (Homo sapiens, UniProt P0DMS8).
T3 construct: expressed in transfected cells
T3 sequence (P0DMS8 1-318): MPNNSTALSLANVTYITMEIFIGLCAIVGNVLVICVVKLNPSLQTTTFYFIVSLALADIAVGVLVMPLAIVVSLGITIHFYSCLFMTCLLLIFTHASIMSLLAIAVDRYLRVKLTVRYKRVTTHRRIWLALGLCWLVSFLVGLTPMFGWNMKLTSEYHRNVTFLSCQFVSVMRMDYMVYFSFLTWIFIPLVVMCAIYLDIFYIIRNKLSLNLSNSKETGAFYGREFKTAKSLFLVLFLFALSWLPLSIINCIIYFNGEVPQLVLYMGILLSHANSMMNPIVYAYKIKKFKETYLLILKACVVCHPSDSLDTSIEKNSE
Conditions: concentration 10 μM; values from Tosh et al.; cited from earlier work.

Assay [2] addresses T1, human A1 AR. Conditions: at 10 μM; model compounds; values from Tosh et al. and Melman et al.; cited from earlier work.

By inhibition is commonly meant the change of the read-out against control, counted positive when it falls. A lower inhibition goes with a weak effect. Usually Ki stands for a measure of affinity in units of concentration, obtained from inhibition or displacement.

Read-outs that look alike come from different tables or passages of the source.

T2 sequence (P29274 whole entry): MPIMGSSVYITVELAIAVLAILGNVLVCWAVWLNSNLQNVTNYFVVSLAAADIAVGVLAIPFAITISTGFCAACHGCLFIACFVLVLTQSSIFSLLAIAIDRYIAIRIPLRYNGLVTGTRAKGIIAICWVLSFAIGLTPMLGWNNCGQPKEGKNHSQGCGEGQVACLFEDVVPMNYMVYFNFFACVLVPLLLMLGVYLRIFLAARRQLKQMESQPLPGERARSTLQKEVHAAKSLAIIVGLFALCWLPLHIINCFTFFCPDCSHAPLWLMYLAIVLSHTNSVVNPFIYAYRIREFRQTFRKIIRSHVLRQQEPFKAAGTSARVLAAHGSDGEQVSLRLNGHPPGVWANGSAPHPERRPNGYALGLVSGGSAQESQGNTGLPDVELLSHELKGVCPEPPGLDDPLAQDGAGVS

With `CNC(=O)[C@@]12C[C@@H]1[C@@H](n1cnc3c(NCc4cccc(Cl)c4)nc(C#CCCCCc4cn(C56CC7CC(CC(C7)C5)C6)nn4)nc31)[C@H](O)[C@@H]2O` [Compound 18, (1S,2R,3S,4R,5S)-6-(3-Chlorobenzylamino)-(2-(6-(1-(adamantyl)-1H-1,2,3-triazol-4-yl)hex-1-ynyl)-9H-purin-9-yl)-2′,3′-dihydroxybicyclo[3.1.0]hexane-1′-carboxylic acid N-methylamide], the inhibition at 10 µM on human A1 AR [1] came to 22%. Further, the inhibition constant (Ki) on hA2AAR worked out at 3280 ± 700 nM.
For the molecule `CNC(=O)[C@@]12C[C@@H]1[C@@H](n1cnc3c(NCc4cccc(Cl)c4)nc(C#CCCCCc4cn(CCCCN)nn4)nc31)[C@H](O)[C@@H]2O` [Compound 16, (1S,2R,3S,4R,5S)-6-(3-Chlorobenzylamino)-(2-(6-(1-(4-aminobutyl)-1H-1,2,3-triazol-4-yl)hex-1-ynyl)-9H-purin-9-yl)-2′,3′-dihydroxybicyclo[3.1.0]hexane-1′-carboxylic acid N-methylamide], the inhibition at 10 µM at human A1 AR [1] stood at 13%. On hA2AAR, the Ki is 1630 ± 350 nM.
`CNC(=O)[C@@]12C[C@@H]1[C@@H](n1cnc3c(NCc4cccc(Cl)c4)nc(C#CCCCCc4cn(CCCCCCNC(=O)c5ccc(-c6c7ccc(=N)c(S(=O)(=O)O)c-7oc7c(S(=O)(=O)O)c(N)ccc67)c(C(=O)O)c5)nn4)nc31)[C@H](O)[C@@H]2O` [Compound 23]: the “% inhibition, A1” value on human A1 AR [1] is given as “(0 ± 0%)”. Besides, the “% inhibition, A2A” value on hA2AAR is on record as “(23 ± 5%)”.
In turn, `CNC(=O)[C@@]12C[C@@H]1[C@@H](n1cnc3c(NCc4cccc(Cl)c4)nc(C#CCCCCc4cn(CCNC(C)=O)nn4)nc31)[C@H](O)[C@@H]2O` [Compound 15, (1S,2R,3S,4R,5S)-6-(3-Chlorobenzylamino)-(2-(6-(1-(4-acetamidoethyl)-1H-1,2,3-triazol-4-yl)hex-1-ynyl)-9H-purin-9-yl)-2′,3′-dihydroxybicyclo[3.1.0]hexane-1′-carboxylic acid N-methylamide] gave an inhibition at 10 µM at human A1 AR [1] of 12%. Also, at hA2AAR, the inhibition constant Ki came out at 2440 ± 320 nM. In addition, at human A3AR, the “% Inhibition of cAMP accumulation at the hA3AR” value is 93.6 ± 17.7%.
Regarding `CNC(=O)[C@@]12C[C@@H]1[C@@H](n1cnc3c(NCc4cccc(Cl)c4)nc(-c4nnn(-c5ccc(N=C=S)cc5)c4CCCCc4cn(-c5ccc(N=C=S)cc5)nn4)nc31)[C@H](O)[C@@H]2O` [Compound 25, (1S,2R,3S,4R,5S)-6-(3-Chlorobenzylamino)-(2-(1,6-bis(4-isothiocyante-phenyl)-1H-bis(1,2,3-triazol-4-yl)hex-1-ynyl)-9H-purin-9-yl)-2′,3′-dihydroxybicyclo[3.1.0]hexane-1′-carboxylic acid N-methylamide], the inhibition at 10 µM on human A1 AR [1] was 4%; at hA2AAR, 40%.
`C#CCCCCC#Cc1nc(NCc2cccc(Cl)c2)c2ncn(C3C(O)C(O)C4(C(=O)NC)CC34)c2n1` (stereo not drawn) [Compound 9, (1′S, 2′R, 3′S, 4′S, 5′S)-4′-[6-(3-Chlorobenzylamino)-2-(1,7-octadiynyl)-9H-purin-9-yl]-2′,3′-dihydroxybicyclo[3.1.0]hexane-1′-carboxylic acid N-methylamide]: on human A1 AR [2], the “% inhibition, A1” value is “(31%”. Moreover, the Ki on hA2AAR is 7040 ± 1430 nM.
Take `CNC(=O)[C@@]12C[C@@H]1[C@@H](n1cnc3c(NCc4cccc(Cl)c4)nc(C#CCCCCc4cn(CCCCCCC(=O)NCCCCCCNC(=O)CCCC[C@@H]5SC[C@@H]6NC(=O)N[C@@H]65)nn4)nc31)[C@H](O)[C@@H]2O` [Compound 21]: the “% inhibition, A1” value at human A1 AR [1] was “(0 ± 0%)”. In addition, the “% inhibition, A2A” value at hA2AAR is “(19 ± 5%)”.
As to `CNC(=O)[C@@]12C[C@@H]1[C@@H](n1cnc3c(NCc4cccc(Cl)c4)nc(C#CCCCCc4cn(Cc5ccc(-n6sccc6=O)cc5)nn4)nc31)[C@H](O)[C@@H]2O` [Compound 19, (1S,2R,3S,4R,5S)-6-(3-Chlorobenzylamino)-(2-(1-(4-3-oxoisothiazol-2(3H)-yl)benzyl-1H-1,2,3-triazol-4-yphex-1-ynyl)-9H-purin-9-yl)-2′,3′-dihydroxybicyclo[3.1.0]hexane-β-carboxylic acid N-methylamide], the inhibition at 10 µM is 15% on human A1 AR [1] and 49% on hA2AAR.
In turn, `CNC(=O)[C@@]12C[C@@H]1[C@@H](n1cnc3c(NCc4cccc(Cl)c4)nc(C#CCCCCc4cn(-c5ccc(F)c([N+](=O)[O-])c5)nn4)nc31)[C@H](O)[C@@H]2O` [Compound 11] came in with an inhibition at 10 µM on human A1 AR [1] of 8%. Moreover, the Ki on hA2AAR is 6730 ± 280 nM.
For `CNC(=O)[C@@]12C[C@@H]1[C@@H](n1cnc3c(NCc4cccc(Cl)c4)nc(C#CCCCCc4cn(-c5ccc(N)cc5)nn4)nc31)[C@H](O)[C@@H]2O` [Compound 12, (1S,2R,3S,4R,5S)-4′-(6-(3-Chlorobenzylamino)-2-(6-(1-(4-amino-phenyl)-1H-1,2,3-triazol-4-yl)hex-1-ynyl)-9H-purin-9-yl)-2′,3′-dihydroxybicyclo[3.1.0]hexane-1′-carboxylic acid N-methylamide], on human A1 AR [1], at 10 µM the inhibition was 3%. In addition, the inhibition constant (Ki) on hA2AAR came to 5490 ± 1150 nM.
The molecule `CNC(=O)[C@@]12C[C@@H]1[C@@H](n1cnc3c(NCc4cccc(Cl)c4)nc(C#CCCCCc4cn(CCCCNC(C)=O)nn4)nc31)[C@H](O)[C@@H]2O` [Compound 17, (1S,2R,3S,4R,5S)-6-(3-Chlorobenzylamino)-(2-(6-(1-(4-acetamidobutyl)-1H-1,2,3-triazol-4-yl)hex-1-ynyl)-9H-purin-9-yl)-2′,3′-dihydroxybicyclo[3.1.0]hexane-1′-carboxylic acid N-methylamide] displayed an inhibition at 10 µM on human A1 AR [1] of 17%. Moreover, the inhibitory constant (Ki) at hA2AAR was found to be 7240 ± 510 nM.
In the case of `CNC(=O)[C@@]12C[C@@H]1[C@@H](n1cnc3c(NCc4cccc(Cl)c4)nc(C#CCCCCc4cn(CCCCCCNC(=O)CCCC[C@@H]5SC[C@@H]6NC(=O)N[C@@H]65)nn4)nc31)[C@H](O)[C@@H]2O` [Compound 20, (1S,2R,3S,4R,5S)-6-(3-Chlorobenzylamino)-(2-(6-(1-(6-(5-(3aS,4S,6aR)-oxohexahydro-1H-thieno[3,4-d]imidazol-4-yl)pentanamido)hexyl-1H-1,2,3-triazol-4-yl)hex-1-ynyl)-9H-purin-9-yl)-2′,3′-dihydroxybicyclo[3.1.0]hexane-1′-carboxylic acid N-methylamide], the inhibition at 10 µM on human A1 AR [1] stood at 0%; at hA2AAR, 27%.
At human A1 AR [1], `CNC(=O)[C@@]12C[C@@H]1[C@@H](n1cnc3c(NCc4cccc(Cl)c4)nc(C#CCCCCc4cn(-c5ccc(C(=O)CBr)cc5)nn4)nc31)[C@H](O)[C@@H]2O` [Compound 14, (1S,2R,3S,4R,5S)-6-(3-Chlorobenzylamino)-4-(2-(6-(4-(2-bromoacetyl)phenyl)-1H-1,2,3-triazol-4-yphex-1-ynyl)-9H-purin-9-yl)-2′,3′-dihydroxybicyclo[3.1.0]hexane-1′-carboxylic acid N-methylamide] gave an inhibition at 10 µM of 12%. For the same molecule, the Ki at hA2AAR turned out to be 5740 ± 730 nM.
In the case of `CNC(=O)[C@@]12C[C@@H]1[C@@H](n1cnc3c(NCc4cccc(Cl)c4)nc(C#CCCCCc4cn(-c5ccc(C(=O)O)cc5)nn4)nc31)[C@H](O)[C@@H]2O` [Compound 13, (1S,2R,3S,4R,5S)-4′-(6-(3-Chlorobenzylamino)-2-(6-(1-(4-carboxyl-phenyl)-1H-1,2,3-triazol-4-yl)hex-1-ynyl)-9H-purin-9-yl)-2′,3′-dihydroxybicyclo[3.1.0]hexane-1′-carboxylic acid N-methylamide], the inhibition at 10 µM at human A1 AR [1] was 0%; on hA2AAR, 40%.
Regarding `CNC(=O)[C@@]12C[C@@H]1[C@@H](n1cnc3c(NCc4cccc(Cl)c4)nc(C#CCCCCc4cn(-c5ccc(N=C=S)cc5)nn4)nc31)[C@H](O)[C@@H]2O` [Compound 26, (1S,2R,3S,4R,5S)-6-(3-Chlorobenzylamino)-(2-(6-(1-(4-isothiocyante-phenyl)-1H-1,2,3-triazol-4-yl)hex-1-ynyl)-9H-purin-9-yl)-2′,3′-dihydroxybicyclo[3.1.0]hexane-1′-carboxylic acid N-methylamide], the inhibition at 10 µM on human A1 AR [1] came to 2%; at hA2AAR, 28%.
